Test results: US20260184663A1, “INDENE COMPOUNDS, PHARMACEUTICAL COMPOSITIONS THEREOF, AND THEIR THERAPEUTIC APPLICATIONS” (NucMito Pharmaceuticals co. Ltd., priority 2022, published 2026)

How the values were obtained:
Assay type in all cases: cell-based
[1] = tested on: B16F10 (malignant melanoma); test: Antiproliferative activity (CCK-8 cell viability), B16F10; conditions: Mus musculus, 72 h, read-out: Antiproliferative activity in cancerous cells, B16F10 (inhibition of cell growth); for inhibition at 3.3 µM: B16-F10, Compound concentration: 3.3 μM; for inhibition at 10 µM: B16-F10, Compound concentration: 10 μM
Procedure, shortened: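 Attached B16F10 cells in 96-well plates were incubated with compound at 37° C for 72 h, followed by 10 μL CCK-8 reagent per well and a further 4 h incubation. A multi-well plate reader measured absorbance at 450 nm. Percent viability across replicates was calculated against DMSO vehicle-treated cells.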

SW480 (colon cancer) = test: Antiproliferative activity (CCK-8 cell viability), SW480; conditions: Homo sapiens, 72 h; for inhibition at 3.3 µM: Compound concentration: 3.3 μM; for inhibition at 3.3 µM / inhibition at 10 µM: read-out: Antiproliferative activity in cancerous cells, SW480 (inhibition of cell growth); for inhibition at 10 µM: Compound concentration: 10 μM; for inhibition at 30 µM: Compound concentration: 30 μM, read-out: Antiproliferative activity in cancerous cells, SW480
Procedure, shortened: (§1)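 Cells were seeded at 2,000-5,000/well (HeLa in MEM, HepG2 and SW480 in DMEM, A549 in F-12K, all with 10% FBS) and treated with compound at 3.3, 10 or 30 μM for 72 h at 37° C. CCK-8 was added for 4 h, absorbance was read at 450 nm, and viability was expressed relative to DMSO-treated wells.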

HepG2 (liver cancer) = test: Antiproliferative activity (CCK-8 cell viability), HepG2; conditions: Homo sapiens, 72 h, read-out: Antiproliferative activity in cancerous cells, HepG2 (inhibition of cell growth); for inhibition at 3.3 µM: Compound concentration: 3.3 μM; for inhibition at 10 µM: Compound concentration: 10 μM
Procedure, shortened: as §1

[2] = tested on: A549 (lung adenocarcinoma); test: Antiproliferative activity (CCK-8 cell viability), A549; conditions: Homo sapiens, 72 h; for inhibition at 3.3 µM: Compound concentration: 3.3 μM; for inhibition at 3.3 µM / inhibition at 10 µM: read-out: Antiproliferative activity in cancerous cells, A549 (inhibition of cell growth); for inhibition at 10 µM: Compound concentration: 10 μM
Procedure, shortened: as §1

HeLa (cervical cancer) = test: Antiproliferative activity (CCK-8 cell viability), HeLa; conditions: Homo sapiens, 72 h, read-out: Antiproliferative activity in cancerous cells, HELA (inhibition of cell growth); for inhibition at 3.3 µM: Compound concentration: 3.3 μM; for inhibition at 10 µM: Compound concentration: 10 μM
Procedure, shortened: as §1

[3] = tested on: MDA-MB-231 (breast cancer); test: Antiproliferative activity (CCK-8 cell viability), MDA-MB-231; conditions: Homo sapiens, 72 h; for inhibition at 3.3 µM: Compound concentration: 3.3 μM; for inhibition at 3.3 µM / inhibition at 10 µM: read-out: Antiproliferative activity in cancerous cells, MDA-MB-231 (inhibition of cell growth); for inhibition at 10 µM: Compound concentration: 10 μM
Procedure, shortened: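 In this CCK-8 viability assay, MDA-MB-231 cells maintained in Dulbecco's modified Eagle's medium containing 10% fetal bovine serum were placed in 96-well plates (2,000-5,000 cells/well) and treated with compound for 72 h at 37° C. A 4 h incubation with 10 μL CCK-8 followed, plates were read at 450 nm, and viability was expressed against DMSO vehicle wells across replicates.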

[4] = tested on: A431 (epidermoid carcinoma); test: Antiproliferative activity (CCK-8 cell viability), A431; conditions: Homo sapiens, 72 h, read-out: Antiproliferative activity in cancerous cells, A431 (inhibition of cell growth); for inhibition at 3.3 µM: A-431, Compound concentration: 3.3 μM; for inhibition at 10 µM: A-431, Compound concentration: 10 μM
Procedure, shortened: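 Cell viability of compound-treated A431 cells was measured with a Cell Counting Kit-8. Each well received 10 μL of CCK-8 after 72 h of compound exposure, followed by 4 h incubation at 37° C. and a 450 nm plate-reader measurement. Percent viability was calculated relative to DMSO controls across replicates.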

Row | SMILES | inhibition at 3.3 µM [1] [%] | inhibition at 10 µM [1] [%] | inhibition at 3.3 µM (SW480 (colon cancer)) [%] | inhibition at 10 µM (SW480 (colon cancer)) [%] | inhibition at 3.3 µM (HepG2 (liver cancer)) [%] | inhibition at 10 µM (HepG2 (liver cancer)) [%] | inhibition at 3.3 µM [2] [%] | inhibition at 10 µM [2] [%] | inhibition at 3.3 µM (HeLa (cervical cancer)) [%] | inhibition at 10 µM (HeLa (cervical cancer)) [%] | inhibition at 3.3 µM [3] [%] | inhibition at 10 µM [3] [%] | inhibition at 3.3 µM [4] [%] | inhibition at 10 µM [4] [%] | inhibition at 30 µM (SW480 (colon cancer)) [%] | inhibition at 30 µM ([2]; Compound concentration: 30 μM, read-out: Antiproliferative activity in cancerous cells, A549) [%] | inhibition at 30 µM ([3]; Compound concentration: 30 μM, read-out: Antiproliferative activity in cancerous cells, MDA-MB-231) [%]
1 | CC1=C(CC(=O)O)c2cc(F)ccc2/C1=C\c1ccc(Oc2ccc(Cl)cc2C)cc1 [C55, (Z)-2-(1-(4-(4-Chloro-2-methylphenoxy)benzylidene)-5-fluoro-2-methyl-1H-inden-3-yl)acetic acid] | ≥ 50 | ≥ 50 | < 30 | ≥ 50 | < 30 | ≥ 50 | < 30 | < 30 | ≥ 50 | ≥ 50 | < 30 | ≥ 50 | 30 to 50 | ≥ 50 | – | – | –
2 | CC1=C(CC(=O)O)c2cc(F)ccc2/C1=C\c1ccc(Oc2ccc(Cl)c(F)c2)cc1 [C56, (Z)-2-(1-(4-(4-Chloro-3-fluorophenoxy)benzylidene)-5-fluoro-2-methyl-1H-inden-3-yl)acetic acid] | ≥ 50 | ≥ 50 | < 30 | ≥ 50 | < 30 | < 30 | < 30 | < 30 | ≥ 50 | ≥ 50 | ≥ 50 | ≥ 50 | ≥ 50 | ≥ 50 | – | – | –
3 | CC1=C(CC(=O)O)c2cc(F)ccc2/C1=C\c1ccc(Oc2ccc(I)cc2)cc1 [C57, (Z)-2-(5-Fluoro-1-(4-(4-iodophenoxy)benzylidene)-2-methyl-1H-inden-3-yl)acetic acid] | ≥ 50 | ≥ 50 | < 30 | ≥ 50 | 30 to 50 | ≥ 50 | 30 to 50 | ≥ 50 | < 30 | ≥ 50 | < 30 | ≥ 50 | 30 to 50 | ≥ 50 | – | – | –
4 | COc1cc(Oc2ccc(Cl)cc2)ccc1/C=C1/C(C)=C(CC(=O)O)c2cc(F)ccc21 [C58, (Z)-2-(1-(4-(4-Chlorophenoxy)-2-methoxybenzylidene)-5-fluoro-2-methyl-1H-inden-3-yl)acetic acid] | ≥ 50 | ≥ 50 | < 30 | < 30 | ≥ 50 | ≥ 50 | ≥ 50 | ≥ 50 | ≥ 50 | ≥ 50 | < 30 | < 30 | ≥ 50 | ≥ 50 | 30 to 50 | – | –
5 | CC1=C(CC(=O)O)c2cc(F)ccc2/C1=C\c1ccc(Oc2ccc(Cl)cc2)cc1Cl [C59, (Z)-2-(1-(2-Chloro-4-(4-chlorophenoxy)benzylidene)-5-fluoro-2-methyl-1H-inden-3-yl)acetic acid] | < 30 | ≥ 50 | < 30 | ≥ 50 | ≥ 50 | ≥ 50 | 30 to 50 | ≥ 50 | ≥ 50 | ≥ 50 | < 30 | < 30 | ≥ 50 | ≥ 50 | – | – | –
6 | CC1=C(CC(=O)O)c2cc(F)ccc2/C1=C\c1ccc(Oc2ccc(Cl)cc2)cc1 [C60, (Z)-2-(1-(4-(4-Chlorophenoxy)benzylidene)-5-fluoro-2-methyl-1H-inden-3-yl)acetic acid] | 30 to 50 | 30 to 50 | < 30 | < 30 | ≥ 50 | ≥ 50 | 30 to 50 | ≥ 50 | ≥ 50 | ≥ 50 | < 30 | < 30 | ≥ 50 | ≥ 50 | 30 to 50 | – | –
7 | CC1=C(CC(=O)O)c2cc(F)ccc2/C1=C\c1ccc(Oc2cccc(Cl)c2)cc1 [C61, (Z)-2-(1-(4-(3-Chlorophenoxy)benzylidene)-5-fluoro-2-methyl-H-inden-3-yl)acetic acid] | < 30 | < 30 | < 30 | < 30 | 30 to 50 | 30 to 50 | 30 to 50 | ≥ 50 | 30 to 50 | ≥ 50 | < 30 | < 30 | ≥ 50 | ≥ 50 | < 30 | – | –
8 | CC1=C(CC(=O)O)c2cc(Cl)ccc2/C1=C\c1ccc(Oc2ccc(Cl)cc2)cc1 [C62, (Z)-2-(5-Chloro-1-(4-(4-chlorophenoxy)benzylidene)-2-methyl-1H-inden-3-yl)acetic acid] | < 30 | ≥ 50 | < 30 | 30 to 50 | ≥ 50 | ≥ 50 | 30 to 50 | ≥ 50 | 30 to 50 | ≥ 50 | < 30 | < 30 | 30 to 50 | ≥ 50 | – | – | –
9 | CC1=C(CC(=O)O)c2cc(Cl)ccc2/C1=C\c1ccc(Oc2ccc(F)cc2)cc1 [C63, (Z)-2-(5-Chloro-1-(4-(4-fluorophenoxy)benzylidene)-2-methyl-1H-inden-3-yl)acetic acid] | 30 to 50 | 30 to 50 | < 30 | < 30 | 30 to 50 | ≥ 50 | 30 to 50 | 30 to 50 | 30 to 50 | ≥ 50 | < 30 | < 30 | ≥ 50 | ≥ 50 | < 30 | 30 to 50 | 30 to 50
10 | CC1=C(CC(=O)O)c2cc(F)ccc2/C1=C\c1ccc(Oc2ccc(Cl)cc2)cc1C [C64, (Z)-2-(1-(4-(4-Chlorophenoxy)-2-methylbenzylidene)-5-fluoro-2-methyl-1H-inden-3-yl)acetic acid] | 30 to 50 | ≥ 50 | < 30 | ≥ 50 | ≥ 50 | ≥ 50 | 30 to 50 | ≥ 50 | ≥ 50 | ≥ 50 | < 30 | 30 to 50 | ≥ 50 | ≥ 50 | – | – | –
